The values below are quoted from earlier work in US20060099251A1, “Formulations of finasteride” (priority 2002, published 2006).

`CC(C)(C)NC(=O)[C@H]1CCC2[C@@H]3CCC4NC(=O)C=C[C@]4(C)C3CC[C@@]21C` (stereo partly drawn) [Finasteride, 17β-(N-tert-butylcarbamoyl)-4-aza-5α-androst-1-en-3-one]: the solubility in water entry is “practically insoluble”.
